Data on 20 substances can be found in the OligoGym collection.

HELM strings list units from the 5' end as sugar, base in round brackets, then linkage (d deoxyribose, r ribose, m 2'-O-methyl, p phosphodiester). Strings are as the collection lists them, not checked against the first reports. ss, as = sense and antisense strand; [una] = unlocked nucleic acid; [fl2r] = 2'-fluoro
Also: test system not given here.

For this series the following is noted: siRNA.
As for “RNA1{r(G)p.r(C)p.r(U)p.r(U)p.r(U)p.m(A)p.r(A)p.r(G)p.r(G)p.r(A)p.r(A)p.r(C)p.m(U)p.r(G)p.r(G)p.r(A)p.r(A)p.r(G)p.r(G)p.r(T)p.r(T)}|RNA2{r(C)p.r(C)p.r(U)p.r(U)p.r(C)p.m(C)p.r(A)p.r(G)p.r(U)p.r(U)p.r(C)p.r(C)p.r(U)p.r(U)p.r(A)p.r(A)p.r(A)p.r(G)p.r(C)p.r(T)p.r(T)}$$$RNA1{StrandType:ss}|RNA2{StrandType:as}$”, the target mRNA knockdown was found to be 74%.

The substance “RNA1{r(G)p.r(C)p.r(U)p.r(U)p.r(U)p.r(A)p.r(A)p.r(G)p.r(G)p.r(A)p.r(A)p.r(C)p.r(U)p.r(G)p.r(G)p.r(A)p.r(A)p.r(G)p.r(G)p.r(T)p.r(T)}|RNA2{r(C)p.r(C)p.r(U)p.r(U)p.r(C)p.r(C)p.r(A)p.r(G)p.r(U)p.r(U)p.r(C)p.r(C)p.r(U)p.m(U)p.r(A)p.r(A)p.r(A)p.r(G)p.r(C)p.r(T)p.r(T)}$$$RNA1{StrandType:ss}|RNA2{StrandType:as}$” had a target mRNA knockdown of 37%.

As to “RNA1{r(G)p.r(G)p.m(U)p.m(A)p.r(G)p.r(A)p.r(A)p.m(U)p.r(A)p.r(G)p.r(G)p.r(U)p.r(U)p.r(U)p.r(U)p.r(C)p.r(C)p.r(C)p.r(C)p.r(T)p.r(T)}|RNA2{r(G)p.r(G)p.r(G)p.r(G)p.r(A)p.r(A)p.r(A)p.r(A)p.r(C)p.r(C)p.m(U)p.r(A)p.r(U)p.r(U)p.r(C)p.m(U)p.r(A)p.r(C)p.r(C)p.r(T)p.r(T)}$$$RNA1{StrandType:ss}|RNA2{StrandType:as}$”, the target mRNA knockdown is 45%.

For “RNA1{r(G)p.r(G)p.m(U)p.r(A)p.r(G)p.r(A)p.r(A)p.r(U)p.r(A)p.r(G)p.r(G)p.r(U)p.r(U)p.r(U)p.r(U)p.r(C)p.r(C)p.r(C)p.r(C)p.r(T)p.r(T)}|RNA2{r(G)p.r(G)p.r(G)p.r(G)p.r(A)p.r(A)p.r(A)p.r(A)p.r(C)p.r(C)p.m(U)p.r(A)p.r(U)p.r(U)p.r(C)p.r(U)p.r(A)p.r(C)p.r(C)p.r(T)p.r(T)}$$$RNA1{StrandType:ss}|RNA2{StrandType:as}$”, the target mRNA knockdown was 82%.

As for “RNA1{r(G)p.r(G)p.m(U)p.r(A)p.r(G)p.r(G)p.r(G)p.r(U)p.m(U)p.r(G)p.r(A)p.r(A)p.r(G)p.r(A)p.r(G)p.r(A)p.r(C)p.r(U)p.r(U)p.r(T)p.r(T)}|RNA2{r(A)p.r(A)p.r(G)p.r(U)p.r(C)p.r(U)p.r(C)p.r(U)p.r(U)p.m(C)p.r(A)p.r(A)p.r(C)p.r(C)p.r(C)p.m(U)p.r(A)p.r(C)p.r(C)p.r(T)p.r(T)}$$$RNA1{StrandType:ss}|RNA2{StrandType:as}$”, the target mRNA knockdown came to 94%.

Substance “RNA1{r(G)p.r(G)p.r(A)p.m(C)p.m(U)p.r(A)p.m(C)p.m(U)p.r(A)p.r(A)p.m(C)p.m(C)p.m(U)p.m(C)p.m(C)p.r(A)p.r(G)p.m(U)p.m(U)p.r(T)p.r(T)}|RNA2{r(A)p.r(A)p.m(C)p.m(U)p.r(G)p.r(G)p.r(A)p.r(G)p.r(G)p.m(U)p.m(U)p.r(A)p.r(G)p.m(U)p.r(A)p.r(G)p.m(U)p.m(C)p.m(C)p.r(T)p.r(T)}$$$RNA1{StrandType:ss}|RNA2{StrandType:as}$” returned a target mRNA knockdown of 7%.

For “RNA1{r(G)p.r(G)p.r(A)p.r(A)p.m(G)p.r(U)p.r(A)p.r(A)p.r(G)p.r(G)p.r(A)p.r(C)p.r(C)p.r(A)p.r(G)p.r(A)p.r(G)p.r(A)p.r(C)p.r(T)p.r(T)}|RNA2{r(G)p.r(U)p.r(C)p.r(U)p.r(C)p.r(U)p.r(G)p.r(G)p.r(U)p.r(C)p.r(C)p.r(U)p.m(U)p.r(A)p.r(C)p.r(U)p.r(U)p.r(C)p.r(C)p.r(T)p.r(T)}$$$RNA1{StrandType:ss}|RNA2{StrandType:as}$”, the target mRNA knockdown was 44%.

With “RNA1{r(G)p.r(G)p.r(A)p.r(A)p.r(G)p.m(U)p.r(A)p.r(A)p.r(G)p.r(G)p.r(A)p.r(C)p.m(C)p.r(A)p.r(G)p.r(A)p.r(G)p.r(A)p.r(C)p.r(T)p.r(T)}|RNA2{r(G)p.r(U)p.r(C)p.r(U)p.r(C)p.m(U)p.r(G)p.r(G)p.r(U)p.r(C)p.r(C)p.r(U)p.m(U)p.r(A)p.r(C)p.r(U)p.r(U)p.r(C)p.r(C)p.r(T)p.r(T)}$$$RNA1{StrandType:ss}|RNA2{StrandType:as}$”, the target mRNA knockdown amounted to 41%.

The substance “RNA1{r(G)p.r(G)p.r(A)p.r(A)p.r(G)p.r(A)p.r(A)p.r(G)p.r(A)p.[fl2r](U)p.r(A)p.r(G)p.r(A)p.r(G)p.[fl2r](C)p.r(A)p.r(U)p.r(C)p.r(C)p.r(T)p.r(T)}|RNA2{r(G)p.r(G)p.r(A)p.[fl2r](U)p.r(G)p.r(C)p.r(U)p.r(C)p.[fl2r](U)p.r(A)p.r(U)p.r(C)p.r(U)p.r(U)p.r(C)p.r(U)p.r(U)p.r(C)p.r(C)p.r(T)p.r(T)}$$$RNA1{StrandType:ss}|RNA2{StrandType:as}$” showed a target mRNA knockdown of 37%.

Turning to “RNA1{r(G)p.r(G)p.r(A)p.r(A)p.r(G)p.r(A)p.r(A)p.r(G)p.r(A)p.r(U)p.r(A)p.r(G)p.r(A)p.r(G)p.r(C)p.r(A)p.r(U)p.r(C)p.r(C)p.r(T)p.r(T)}|RNA2{r(G)p.r(G)p.r(A)p.r(U)p.r(G)p.r(C)p.r(U)p.r(C)p.[fl2r](U)p.r(A)p.r(U)p.r(C)p.r(U)p.r(U)p.r(C)p.r(U)p.r(U)p.r(C)p.r(C)p.r(T)p.r(T)}$$$RNA1{StrandType:ss}|RNA2{StrandType:as}$”, the target mRNA knockdown worked out at 37%.

“RNA1{r(G)p.r(G)p.r(A)p.r(A)p.r(G)p.r(U)p.r(C)p.m(C)p.m(A)p.r(C)p.r(C)p.m(U)p.m(U)p.r(C)p.r(U)p.r(C)p.r(C)p.r(G)p.r(A)p.r(T)p.r(T)}|RNA2{r(U)p.r(C)p.r(G)p.r(G)p.r(A)p.r(G)p.r(A)p.r(A)p.r(G)p.r(G)p.m(U)p.r(G)p.r(G)p.r(A)p.r(C)p.r(U)p.r(U)p.r(C)p.r(C)p.r(T)p.r(T)}$$$RNA1{StrandType:ss}|RNA2{StrandType:as}$”: the target mRNA knockdown was determined as 51%.

As for “RNA1{r(G)p.r(G)p.r(A)p.r(A)p.r(G)p.r(U)p.r(C)p.r(C)p.m(A)p.r(C)p.r(C)p.r(U)p.r(U)p.r(C)p.r(U)p.r(C)p.r(C)p.r(G)p.r(A)p.r(T)p.r(T)}|RNA2{r(U)p.r(C)p.r(G)p.r(G)p.r(A)p.r(G)p.r(A)p.r(A)p.r(G)p.r(G)p.m(U)p.r(G)p.r(G)p.r(A)p.r(C)p.r(U)p.r(U)p.r(C)p.r(C)p.r(T)p.r(T)}$$$RNA1{StrandType:ss}|RNA2{StrandType:as}$”, the target mRNA knockdown stood at 54%.

In the case of “RNA1{r(G)p.r(G)p.r(A)p.r(C)p.m(U)p.r(A)p.r(C)p.m(U)p.r(A)p.r(A)p.r(C)p.r(C)p.r(U)p.r(C)p.m(C)p.r(A)p.r(G)p.r(U)p.r(U)p.r(T)p.r(T)}|RNA2{r(A)p.r(A)p.r(C)p.m(U)p.r(G)p.r(G)p.r(A)p.r(G)p.r(G)p.r(U)p.m(U)p.r(A)p.r(G)p.m(U)p.r(A)p.r(G)p.r(U)p.r(C)p.r(C)p.r(T)p.r(T)}$$$RNA1{StrandType:ss}|RNA2{StrandType:as}$”, the target mRNA knockdown is 69%.

In turn, “RNA1{r(G)p.r(G)p.r(A)p.r(C)p.r(A)p.r(U)p.r(U)p.r(C)p.r(A)p.r(G)p.r(A)p.r(A)p.r(C)p.r(A)p.r(A)p.r(G)p.r(A)p.r(A)p.r(A)p.[una](U)p.[una](U)}|RNA2{[una](U)p.r(U)p.r(U)p.r(C)p.r(U)p.r(U)p.r(G)p.r(U)p.r(U)p.r(C)p.r(U)p.r(G)p.r(A)p.r(A)p.r(U)p.r(G)p.r(U)p.r(C)p.r(C)p.[una](U)p.[una](U)}$$$RNA1{StrandType:ss}|RNA2{StrandType:as}$” had a target mRNA knockdown of 75%.

In turn, “RNA1{r(G)p.r(G)p.r(A)p.r(C)p.r(A)p.r(U)p.r(U)p.r(C)p.r(A)p.r(G)p.r(A)p.r(A)p.r(C)p.r(A)p.r(A)p.r(G)p.r(A)p.r(A)p.r(A)p.[una](U)p.[una](U)}|RNA2{r(U)p.[una](U)p.r(U)p.r(C)p.r(U)p.r(U)p.r(G)p.r(U)p.r(U)p.r(C)p.r(U)p.r(G)p.r(A)p.r(A)p.r(U)p.r(G)p.r(U)p.r(C)p.r(C)p.[una](U)p.[una](U)}$$$RNA1{StrandType:ss}|RNA2{StrandType:as}$” registered a target mRNA knockdown of 36%.

In turn, “RNA1{r(G)p.r(G)p.r(A)p.r(C)p.r(A)p.r(U)p.r(U)p.r(C)p.r(A)p.r(G)p.r(A)p.r(A)p.r(C)p.r(A)p.r(A)p.r(G)p.r(A)p.r(A)p.r(A)p.[una](U)p.[una](U)}|RNA2{r(U)p.r(U)p.[una](U)p.r(C)p.r(U)p.r(U)p.r(G)p.r(U)p.r(U)p.r(C)p.r(U)p.r(G)p.r(A)p.r(A)p.r(U)p.r(G)p.r(U)p.r(C)p.r(C)p.[una](U)p.[una](U)}$$$RNA1{StrandType:ss}|RNA2{StrandType:as}$” registered a target mRNA knockdown of 0%.

“RNA1{r(G)p.r(G)p.r(A)p.r(C)p.r(A)p.r(U)p.r(U)p.r(C)p.r(A)p.r(G)p.r(A)p.r(A)p.r(C)p.r(A)p.r(A)p.r(G)p.r(A)p.r(A)p.r(A)p.[una](U)p.[una](U)}|RNA2{r(U)p.r(U)p.r(U)p.[una](C)p.r(U)p.r(U)p.r(G)p.r(U)p.r(U)p.r(C)p.r(U)p.r(G)p.r(A)p.r(A)p.r(U)p.r(G)p.r(U)p.r(C)p.r(C)p.[una](U)p.[una](U)}$$$RNA1{StrandType:ss}|RNA2{StrandType:as}$” registered a target mRNA knockdown of 50%.

Turning to “RNA1{r(G)p.r(G)p.r(A)p.r(C)p.r(A)p.r(U)p.r(U)p.r(C)p.r(A)p.r(G)p.r(A)p.r(A)p.r(C)p.r(A)p.r(A)p.r(G)p.r(A)p.r(A)p.r(A)p.[una](U)p.[una](U)}|RNA2{r(U)p.r(U)p.r(U)p.r(C)p.[una](U)p.r(U)p.r(G)p.r(U)p.r(U)p.r(C)p.r(U)p.r(G)p.r(A)p.r(A)p.r(U)p.r(G)p.r(U)p.r(C)p.r(C)p.[una](U)p.[una](U)}$$$RNA1{StrandType:ss}|RNA2{StrandType:as}$”, the target mRNA knockdown is 37%.

For the substance “RNA1{r(G)p.r(G)p.r(A)p.r(C)p.r(A)p.r(U)p.r(U)p.r(C)p.r(A)p.r(G)p.r(A)p.r(A)p.r(C)p.r(A)p.r(A)p.r(G)p.r(A)p.r(A)p.r(A)p.[una](U)p.[una](U)}|RNA2{r(U)p.r(U)p.r(U)p.r(C)p.r(U)p.[una](U)p.r(G)p.r(U)p.r(U)p.r(C)p.r(U)p.r(G)p.r(A)p.r(A)p.r(U)p.r(G)p.r(U)p.r(C)p.r(C)p.[una](U)p.[una](U)}$$$RNA1{StrandType:ss}|RNA2{StrandType:as}$”, the target mRNA knockdown is 57%.

For the substance “RNA1{r(G)p.r(G)p.r(A)p.r(C)p.r(A)p.r(U)p.r(U)p.r(C)p.r(A)p.r(G)p.r(A)p.r(A)p.r(C)p.r(A)p.r(A)p.r(G)p.r(A)p.r(A)p.r(A)p.[una](U)p.[una](U)}|RNA2{r(U)p.r(U)p.r(U)p.r(C)p.r(U)p.r(U)p.[una](G)p.r(U)p.r(U)p.r(C)p.r(U)p.r(G)p.r(A)p.r(A)p.r(U)p.r(G)p.r(U)p.r(C)p.r(C)p.[una](U)p.[una](U)}$$$RNA1{StrandType:ss}|RNA2{StrandType:as}$”, the target mRNA knockdown was found to be 78%.
